{"source": "patent US10322106B2", "about": "“Combinations of amisulpride and another anti-emetic for treating nausea and vomiting” (Acacia Pharma Limited, priority 2015, dated 2019)", "key": {"[1]": {"test_system": "cisplatin-induced nausea and vomiting", "assay": "Study 1: open label, ascending dose Phase II study of intravenous amisulpride in the prevention of cisplatin-induced nausea and vomiting", "type": "in vivo, human", "method": "This study was designed to find the optimum dose range of IV amisulpride for the kit and method of the invention. This was an open label, ascending dose, Phase II study to determine the minimum effective dose of intravenous amisulpride in the prevention of cisplatin-induced nausea and vomiting. The number of patients evaluated was 51. Doses of amisulpride (racemic mixture) administered were 2.5, 7.5 and 20 mg. A 20 mg dose of amisulpride was also administered with a standard dose of IV ondansetron."}, "[2]": {"test_system": "chemotherapy-induced nausea and vomiting (cisplatin or cyclophosphamide with epirubicin or doxorubicin)", "assay": "Study 2: randomised, double blind Phase II study of oral amisulpride for prevention of acute and delayed phase chemotherapy-induced nausea and vomiting", "type": "in vivo, human", "method": "A randomised, double blind Phase II clinical study was conducted to characterise the dose-response of oral amisulpride for the prevention of acute and delayed phase nausea and vomiting in male and female patients. The patent population consisted of adult, chemotherapy-naïve cancer patients, receiving a first infusion of either cisplatin chemotherapy at a dose of 70 mg/m^2 or greater, or a combination of cyclophosphamide (500-1500 mg/m^2) and either epirubicin (60-100 mg/m^2) or doxorubicin (40-60 mg/m^2) for breast cancer. All patients received an intravenous injection of 20 mg of amisulpride (racemic mixture) and an intravenous injection of 8-16 mg ondansetron on the day of chemotherapy administration (i.e. day 1). The oral doses of amisulpride (racemic mixture) studied, along with placebo, were 10 mg, 20 mg or 40 mg each administered once per day on days 2-4 after chemotherapy. Specifically one capsule of amisulpride or its matching placebo, were taken as early as practically possible after waking of the patients each morning on days 2, 3 and 4. […] “Delayed phase response” means complete response (composite endpoint defined as no voting/retching and no use of rescue medication) in the period 24-120 hrs after chemo. There are other benefits of using a kit of the invention compared to three-drug regimen, such as reduced side-effects and better patient compliance."}, "[3]": {"test_system": "cisplatin-induced emesis", "conditions": "ferrets; higher dosages; cited from earlier work"}, "[4]": {"conditions": "oral 10 mg AMI days 2-4 after IV OND + 20 mg AMI day 1, all subjects"}, "[5]": {"conditions": "oral 10 mg AMI days 2-4 after IV OND + 20 mg AMI day 1, patients with acute phase CR"}, "[6]": {"conditions": "oral 20 mg AMI days 2-4 after IV OND + 20 mg AMI day 1, all subjects"}, "[7]": {"conditions": "oral 20 mg AMI days 2-4 after IV OND + 20 mg AMI day 1, patients with acute phase CR"}, "[8]": {"conditions": "oral 40 mg AMI days 2-4 after IV OND + 20 mg AMI day 1, all subjects"}, "[9]": {"conditions": "oral 40 mg AMI days 2-4 after IV OND + 20 mg AMI day 1, patients with acute phase CR"}}}
{"smiles": "CCN1CCCC1CNC(=O)c1cc(S(=O)(=O)CC)c(N)cc1OC", "note": "(racemic) [amisulpride]", "values": [{"measurement": "No emesis (vomiting/retching)", "setting": "[1]; 2.5 mg IV amisulpride", "value": "0/5"}, {"measurement": "No significant nausea", "setting": "[1]; 2.5 mg IV amisulpride", "value": "1/5"}, {"measurement": "No emesis (vomiting/retching)", "setting": "[1]; 7.5 mg IV amisulpride", "value": "0/5"}, {"measurement": "No significant nausea", "setting": "[1]; 7.5 mg IV amisulpride", "value": "1/5"}, {"measurement": "No emesis (vomiting/retching)", "setting": "[1]; 20 mg IV amisulpride", "value": "3/18"}, {"measurement": "No significant nausea", "setting": "[1]; 20 mg IV amisulpride", "value": "12/18"}, {"measurement": "Protection from nausea, dose-relationship", "setting": "[1]; IV amisulpride from 2.5 mg to 20 mg", "value": "positive dose-relationship"}, {"measurement": "Delayed phase response (complete response 24-120 hrs after chemo), in words", "setting": "[2]; 10 mg oral amisulpride days 2-4, acute-phase responders", "value": "significantly better than placebo"}, {"measurement": "CR, 0-120 h", "setting": "[2]; [4]", "value": 36, "unit": "%"}, {"measurement": "CR, 0-120 h (number of subjects)", "setting": "[2]; [4]", "value": 21}, {"measurement": "CR, 24-120 h", "setting": "[2]; [4]", "value": 46, "unit": "%"}, {"measurement": "CR, 24-120 h (number of subjects)", "setting": "[2]; [4]", "value": 27}, {"measurement": "Nausea, 0-120 h", "setting": "[2]; [4]", "value": 68, "unit": "%"}, {"measurement": "Nausea, 0-120 h (number of subjects)", "setting": "[2]; [4]", "value": 40}, {"measurement": "Nausea, 24-120 h", "setting": "[2]; [4]", "value": 63, "unit": "%"}, {"measurement": "Nausea, 24-120 h (number of subjects)", "setting": "[2]; [4]", "value": 37}, {"measurement": "Rescue medication use, 0-120 h", "setting": "[2]; [4]", "value": 54, "unit": "%"}, {"measurement": "Rescue medication use, 0-120 h (number of subjects)", "setting": "[2]; [4]", "value": 32}, {"measurement": "Rescue medication use, 24-120 h", "setting": "[2]; [4]", "value": 41, "unit": "%"}, {"measurement": "Rescue medication use, 24-120 h (number of subjects)", "setting": "[2]; [4]", "value": 26}, {"measurement": "Vomiting, 0-120 h", "setting": "[2]; [4]", "value": 59, "unit": "%"}, {"measurement": "Vomiting, 0-120 h (number of subjects)", "setting": "[2]; [4]", "value": 35}, {"measurement": "Vomiting, 24-120 h", "setting": "[2]; [4]", "value": 46, "unit": "%"}, {"measurement": "Vomiting, 24-120 h (number of subjects)", "setting": "[2]; [4]", "value": 27}, {"measurement": "CR, 24-120 h", "setting": "[2]; oral 10 mg AMI days 2-4 after IV OND + 20 mg AMI day 1, all subjects, listed as AMI", "value": 46, "unit": "%"}, {"measurement": "CR, 24-120 h", "setting": "[2]; [5]", "value": 75, "unit": "%"}, {"measurement": "CR, 24-120 h (number of subjects)", "setting": "[2]; [5]", "value": 21}, {"measurement": "Nausea, 24-120 h", "setting": "[2]; [5]", "value": 32, "unit": "%"}, {"measurement": "Nausea, 24-120 h (number of subjects)", "setting": "[2]; [5]", "value": 9}, {"measurement": "Rescue medication use, 24-120 h", "setting": "[2]; [5]", "value": 14, "unit": "%"}, {"measurement": "Rescue medication use, 24-120 h (number of subjects)", "setting": "[2]; [5]", "value": 4}, {"measurement": "Vomiting, 24-120 h", "setting": "[2]; [5]", "value": 21, "unit": "%"}, {"measurement": "Vomiting, 24-120 h (number of subjects)", "setting": "[2]; [5]", "value": 6}, {"measurement": "CR, 0-120 h", "setting": "[2]; [6]", "value": 25, "unit": "%"}, {"measurement": "CR, 0-120 h (number of subjects)", "setting": "[2]; [6]", "value": 17}, {"measurement": "CR, 24-120 h", "setting": "[2]; [6]", "value": 31, "unit": "%"}, {"measurement": "CR, 24-120 h (number of subjects)", "setting": "[2]; [6]", "value": 21}, {"measurement": "Nausea, 0-120 h", "setting": "[2]; [6]", "value": 72, "unit": "%"}, {"measurement": "Nausea, 0-120 h (number of subjects)", "setting": "[2]; [6]", "value": 48}, {"measurement": "Nausea, 24-120 h", "setting": "[2]; [6]", "value": 69, "unit": "%"}, {"measurement": "Nausea, 24-120 h (number of subjects)", "setting": "[2]; [6]", "value": 46}, {"measurement": "Rescue medication use, 0-120 h", "setting": "[2]; [6]", "value": 55, "unit": "%"}, {"measurement": "Rescue medication use, 0-120 h (number of subjects)", "setting": "[2]; [6]", "value": 37}, {"measurement": "Rescue medication use, 24-120 h", "setting": "[2]; [6]", "value": 54, "unit": "%"}, {"measurement": "Rescue medication use, 24-120 h (number of subjects)", "setting": "[2]; [6]", "value": 36}, {"measurement": "Vomiting, 0-120 h", "setting": "[2]; [6]", "value": 70, "unit": "%"}, {"measurement": "Vomiting, 0-120 h (number of subjects)", "setting": "[2]; [6]", "value": 47}, {"measurement": "Vomiting, 24-120 h", "setting": "[2]; [6]", "value": 55, "unit": "%"}, {"measurement": "Vomiting, 24-120 h (number of subjects)", "setting": "[2]; [6]", "value": 37}, {"measurement": "CR, 24-120 h", "setting": "[2]; [7]", "value": 57, "unit": "%"}, {"measurement": "CR, 24-120 h (number of subjects)", "setting": "[2]; [7]", "value": 17}, {"measurement": "Nausea, 24-120 h", "setting": "[2]; [7]", "value": 47, "unit": "%"}, {"measurement": "Nausea, 24-120 h (number of subjects)", "setting": "[2]; [7]", "value": 14}, {"measurement": "Rescue medication use, 24-120 h", "setting": "[2]; [7]", "value": 23, "unit": "%"}, {"measurement": "Rescue medication use, 24-120 h (number of subjects)", "setting": "[2]; [7]", "value": 7}, {"measurement": "Vomiting, 24-120 h", "setting": "[2]; [7]", "value": 43, "unit": "%"}, {"measurement": "Vomiting, 24-120 h (number of subjects)", "setting": "[2]; [7]", "value": 13}, {"measurement": "CR, 0-120 h", "setting": "[2]; [8]", "value": 27, "unit": "%"}, {"measurement": "CR, 0-120 h (number of subjects)", "setting": "[2]; [8]", "value": 17}, {"measurement": "CR, 24-120 h", "setting": "[2]; [8]", "value": 31, "unit": "%"}, {"measurement": "CR, 24-120 h (number of subjects)", "setting": "[2]; [8]", "value": 20}, {"measurement": "Nausea, 0-120 h", "setting": "[2]; [8]", "value": 77, "unit": "%"}, {"measurement": "Nausea, 0-120 h (number of subjects)", "setting": "[2]; [8]", "value": 49}, {"measurement": "Nausea, 24-120 h", "setting": "[2]; [8]", "value": 72, "unit": "%"}, {"measurement": "Nausea, 24-120 h (number of subjects)", "setting": "[2]; [8]", "value": 46}, {"measurement": "Rescue medication use, 0-120 h", "setting": "[2]; [8]", "value": 58, "unit": "%"}, {"measurement": "Rescue medication use, 0-120 h (number of subjects)", "setting": "[2]; [8]", "value": 37}, {"measurement": "Rescue medication use, 24-120 h", "setting": "[2]; [8]", "value": 56, "unit": "%"}, {"measurement": "Rescue medication use, 24-120 h (number of subjects)", "setting": "[2]; [8]", "value": 36}, {"measurement": "Vomiting, 0-120 h", "setting": "[2]; [8]", "value": 66, "unit": "%"}, {"measurement": "Vomiting, 0-120 h (number of subjects)", "setting": "[2]; [8]", "value": 42}, {"measurement": "Vomiting, 24-120 h", "setting": "[2]; [8]", "value": 58, "unit": "%"}, {"measurement": "Vomiting, 24-120 h (number of subjects)", "setting": "[2]; [8]", "value": 37}, {"measurement": "CR, 24-120 h", "setting": "[2]; [9]", "value": 47, "unit": "%"}, {"measurement": "CR, 24-120 h (number of subjects)", "setting": "[2]; [9]", "value": 17}, {"measurement": "Nausea, 24-120 h", "setting": "[2]; [9]", "value": 61, "unit": "%"}, {"measurement": "Nausea, 24-120 h (number of subjects)", "setting": "[2]; [9]", "value": 22}, {"measurement": "Rescue medication use, 24-120 h", "setting": "[2]; [9]", "value": 36, "unit": "%"}, {"measurement": "Rescue medication use, 24-120 h (number of subjects)", "setting": "[2]; [9]", "value": 13}, {"measurement": "Vomiting, 24-120 h", "setting": "[2]; [9]", "value": 47, "unit": "%"}, {"measurement": "Vomiting, 24-120 h (number of subjects)", "setting": "[2]; [9]", "value": 17}, {"measurement": "inhibiting cisplatin-induced emesis, dose dependence in words", "setting": "[3]", "value": "less effective at higher dosages"}]}
